# Laboratory results from patent US9968645B2, “Method for enhanced production of morinda metabolites” (priority 2014, dated 2018).
# System: DSS-induced ulcerative colitis in mouse
# Test: Acute mouse ulcerative colitis model, colitis induced by 4% dextran sulfate (DSS)
# Assay type: in vivo
# Settings: Male BalbC mice, 20 mg/kg co-fed with 4% DSS for 7 days
# Procedure: The therapeutic efficacy of the methanolic extracts of MO hairy roots was examined in an acute mouse ulcerative colitis model. The mouse ulcerative colitis model is used to predict ulcerative colitis and treatment of that disease in human subjects (e.g. Low et. al., 2013). Male BalbC mice in groups of 10 were housed in Good Animal Care Protocol conditions. Colitis was induced by 4% dextran sulfate (DSS). In a pilot dosing study (50 mg/kg, 150 mg/kg, and 450 mg/kg) of MO root extracts on UC, an unexpected finding was made. […] Subsequently the effect of drug treatment on colitis was investigated by co-feeding the mice extracts from MO native plants or hairy root culture at doses below 50 mg/kg along with 4% DSS for 7 days. 5-amino-salicylic acid (5-ASA) was used as a positive treatment control. Animals were weighed, and stool consistency was monitored daily to determine the disease activity index (DAD. All animals were anesthetized and the colons were separated from the proximal rectum, and the colon length was measured between the ileo-cecal junction and the proximal rectum. [table]
compound,measurement,setting,value
"Nc1ccc(O)c(C(=O)O)c1 [5-ASA, 5-amino-salicylic acid]",DAI (disease activity index),,3.0 ± 2.22
same,Length of colon,,6.77 ± 0.19 cm
same,% of mice developing ulcer,including disruption of colonic crypts and damaged glandular structures,60%
